From patent publication US7253286B2, “Nitrogen-containing aromatic derivatives” (Eisai Co., Ltd, priority 2000, dated 2007) come the findings set out here.

The structures appear in SMILES notation.

For the assay, the system named is Human Umbilical Vein Endothelial Cells (HUVECs). As to the kind of experiment: Inhibition against sandwich tube formation by vascular endothelial cells in response to stimulation by VEGF. The format is cell-based. The settings on record: HUVEC in collagen gel sandwich, stimulation by VEGF (25 ng/ml VEGF and 10 ng/ml EGF), 4th day, total tube length, read-out: IC50 (concentration required for 50% inhibition of tube formation). As for the experimental part: Inhibition Against Sandwich Tube Formation by Vascular Endothelial Cells in Response to Stimulation by Angiogenic Factor
Human Umbilical Vein Endothelial Cells (HUVECS) were isolated by the same method as in Pharmacological Test Example 1, and were cultured in a 5% CO2 incubator (37° C.) using EGM-2 medium (purchased from Clonetics Corp.) until the cells reached confluency.
An ice-cooled mixture of collagen: 5× RPMI 1640: reconstitution buffer (all purchased from Nitta Gelatin, Inc.) at 7:2:1 was dispensed at 0.4 ml into each well of a 24-well plate, and then stationed for 40 minutes in a 5% CO2 incubator (37° C.) for gelling. The HUVECs were recovered using trypsin-EDTA and then suspended in human endothelial serum free medium (SFM, purchased from GIBCO BRL) containing added angiogenic factors [20 ng/ml FGF2 (purchased from GIBCO BRL) and 10 ng/ml EGF (purchased from GIBCO BRL), or 25 ng/ml VEGF (purchased from Wako Pure Chemical Industries Co., Ltd.) and 10 ng/ml EGF, or 30 ng/ml HGF (purchased from R&D Co.) and 10 ng/ml EGF], and the cell suspension was added at 0.4 ml to each well (with the cell counts differing slightly according to the HUVEC lot), and cultured overnight in a 5% CO2 incubator (37° C.). On the following day, the medium on the upper layer was aspirated off, and then 0.4 ml of an ice-cooled mixture of collagen: 5× RPMI 1640: reconstitution buffer (all purchased from Nitta Gelatin, Inc.) at 7:2:1 was superposed into each well prior to stationing for 4 hours in a 5% CO2 incubator (37° C.) for gelling. After adding 1.5 ml of an SFM solution containing each of the aforementioned angiogenic factors and a diluted test substance onto the upper layer, culturing was performed in a 5% CO2 incubator (37° C.). Upon aspirating off the culture supernatant in each well on the 4th day after addition of the test substance, 0.4 ml of a 3.3 mg/ml MTT solution dissolved in PBS (purchased from Sigma Corp.) was added to each well and culturing was performed for approximately 2 hours in a 5% CO2 incubator (37° C.). The tubes formed in the collagen gel of each well were stained by the MTT, the tube images were loaded into a computer (Macintosh), and the total length of the tubes was determined by image analysis software “MacScope” (purchased from Mitani Corp.). The ratio of the total length of the tubes formed in the well containing the test substance with respect to the total length of the tubes formed in the well containing no test substance was expressed as a percentage, and the concentration of each test substance required for 50% inhibition of tube formation (IC50) was determined from the ratio value.
`COCCOc1cc2nccc(Oc3ccc(NC(=O)Nc4nccs4)cc3)c2cc1C#N` [Example 12, N-(4-(6-cyano-7-(2-methoxyethoxy)-4-quinolyl)oxyphenyl)-N′-(1,3-thiazol-2-yl)urea]: the IC50 worked out at 44 nM.
`COCCOc1cc2nccc(Oc3ccc(NC(=O)Nc4cccc(C#N)c4)cc3)c2cc1C#N` [Example 19, N-(4-(6-Cyano-7-(2-methoxyethoxy)-4-quinolyl)oxyphenyl)-N′-(3-cyanophenyl)urea]: the IC50 came out at 28 nM.
Turning to `COCCOc1cc2nccc(Oc3ccc(NC(=O)NC4CC4)cc3)c2cc1C#N` [Example 23, N-(4-(6-cyano-7-(2-methoxyethoxy)-4-quinolyl)oxyphenyl)-N′-cyclopropylurea], the IC50 came to 100 nM.
As for `CS(=O)(=O)CCOc1cc2nccc(Oc3ccc(NC(=O)Nc4ccc(F)cc4)cc3)c2cc1C#N` [Example 59, N-(4-(6-Cyano-7-(2-(methylsulfonyl)ethoxy)-4-quinolyl)oxyphenyl)-N′-(4-fluorophenyl)urea], the figure is 170 nM.
On to `COC(=O)CCCOc1cc2nccc(Oc3ccc(NC(=O)Nc4ccc(OC)cc4)cc3)c2cc1C#N` [Example 70, N-(4-(6-Cyano-7-(3-methoxycarbonylpropoxy)-4-quinolyl)oxyphenyl)-N′-(4-methoxyphenyl)urea], for which the IC50 was 58 nM.
With `CS(=O)(=O)CCCOc1cc2nccc(Oc3ccc(NC(=O)Nc4ccc(F)cc4)cc3)c2cc1C#N` [Example 108, N-(4-(6-Cyano-7-(3-(methylsulfonyl)propoxy)-4-quinolyloxy)phenyl)-N′-(4-fluorophenyl)urea], the IC50 came out at 4.9 nM.
Turning to `CN1CCCC(COc2cc3nccc(Oc4ccc(NC(=O)Nc5ccc(F)cc5)c(F)c4)c3cc2C#N)C1` (stereo not drawn) [Example 127, N-(4-(6-Cyano-7-((1-methylpiperidin-3-yl)methoxy)-4-quinolyl)oxy-2-fluorophenyl)-N′-(4-fluorophenyl)urea], the IC50 was 7.5 nM.
In the case of `COc1cc2nccc(Oc3ccc(NC(=O)Nc4ccccc4)cn3)c2cc1OC` [Example 129, N-6-((6,7-Dimethoxy-4-quinolyl)oxy)-3-pyridyl-N′-phenylurea], the IC50 is 40 nM.
For the molecule `N#Cc1cc2c(Oc3ccc(NC(=O)Nc4ccc(F)cc4)c(F)c3)ccnc2cc1OCCCC(=O)NC1CC1` [Example 137, N-(4-(6-Cyano-7-(3-((cyclopropylamino)carbonyl)propoxy)-4-quinolyl)oxy-2-fluorophenyl)-N′-(4-fluorophenyl)urea], the IC50 amounted to 10 nM.
As for `O=C(Nc1ccc(Oc2ncnc3[nH]c(-c4ccc(OCCCN5CCCC5)cc4)cc23)cc1Cl)NC1CC1` [Example 155], the IC50 was 1.4 nM.
Consider `CCN(CC)C[C@@H](O)COc1ccc(-c2cc3c(Oc4ccc(NC(=O)NC5CC5)c(Cl)c4)ncnc3[nH]2)cc1` [Example 157], for which the IC50 is 0.9 nM.
Take `C#Cc1c(Oc2ccc(NC(=O)Nc3ccc(F)cc3)cc2)ccnc1N(C(=O)C1CC1)C(=O)C1CC1` [Example 186, N1-Cyclopropylcarbonyl-N1-[3-(1-ethynyl)-4-(4-{[(4-fluoroanilino)carbonyl]amino}phenoxy)-2-pyridyl]-1-cyclopropanecarboxamide]: the IC50 came to 23 nM.
As for `O=C(Nc1cc(Oc2ccc3c(ccn3C(=O)Nc3ccccc3)c2)ccn1)C1CCN(CC2CC2)CC1` [Example 198, N1-Phenyl-5-{[2-({[(1-cyclopropylmethyl)-4-piperidyl]carbonyl}amino)-4-pyridyl]oxy}-1H-1-indolecarboxamide], the IC50 was found to be 1.5 nM.
Take `CN1CCC(C(=O)Nc2cc(Oc3ccc(NC(=O)Nc4ccc(F)cc4)c(Cl)c3)ccn2)CC1` [Example 202, N4-[4-(3-Chloro-4-{[(4-fluoroanilino)carbonyl]amino}phenoxy)-2-pyridyl]-1-methyl-4-piperidinecarboxamide]: the IC50 was 15 nM.
For the molecule `CN1CCC(CC(=O)Nc2cc(Oc3ccc4c(ccn4C(=O)Nc4ccccc4)c3)ccn2)CC1` [Example 204, N1-Phenyl-5-[(2-{[2-(1-methyl-4-piperidyl)acetyl]amino}-4-pyridyl)oxy]-1H-1-indolecarboxamide], the IC50 was found to be 0.9 nM.
